Source: patent publication US9833497B2, “Human originated EGF domain proteins and use of the same” (CHENGDU SOURCEBIO LIMITED-LIABILITY COMPANY, priority 2013, dated 2017)

Experiments:
Format in all cases: cell-based
Pseudomonas aeruginosa = experiment: MIC against Gram-negative bacteria: Pseudomonas aeruginosa; settings: 5×10^5 CFU/mL; for MIC P. aeruginosa: 10 h cultivation at 37° C., two-fold serial dilution; for MIC against P. aeruginosa: Pseudomonas aeruginosa, 96-well plate, 37° C., 10 h
How it was run: (§1)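 Bacteria grown in LB at 37° C to McFarland 0.5, resuspended and seeded at 5×10^5 CFU/mL in 96-well plates. Purified human EGF-domain proteins two-fold serially diluted, triplicate wells; cultured at 37° C, shaking 175 rpm. MIC = lowest protein concentration with no growth.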

Moraxella catarrhalis = experiment: MIC against Gram-negative bacteria: Moraxella catarrhalis; settings: 5×10^5 CFU/mL; for MIC M. catarrhalis: 10 h cultivation at 37° C., two-fold serial dilution; for MIC against M. catarrhalis: Moraxella catarrhalis, 96-well plate, 37° C., 10 h
How it was run: as §1

Proteus mirabilis = experiment: MIC against Gram-negative bacteria: Proteus mirabilis; settings: 5×10^5 CFU/mL; for MIC P. mirabilis: 10 h cultivation at 37° C., two-fold serial dilution; for MIC against P. mirabilis: Proteus mirabilis, 96-well plate, 37° C., 10 h
How it was run: as §1

Enterobacter cloacae = experiment: MIC against Gram-negative bacteria: Enterobacter cloacae; settings: 5×10^5 CFU/mL; for MIC E. cloacae: 10 h cultivation at 37° C., two-fold serial dilution; for MIC against E. cloacae: Enterobacter cloacae, 96-well plate, 37° C., 10 h
How it was run: as §1

Proteus vulgaris = experiment: MIC against Gram-negative bacteria: Proteus vulgaris; settings: 5×10^5 CFU/mL; for MIC P. vulgaris: 10 h cultivation at 37° C., two-fold serial dilution; for MIC against P. vulgaris: Proteus vulgaris, 96-well plate, 37° C., 10 h
How it was run: as §1

E. coli DH5α = experiment: Antibacterial activity: MIC and growth curve against E. coli DH5α in 96-well plate; settings: minimal inhibitory concentration against E. coli DH5α; 96-well plate, 5×10^5 CFU/mL, 37° C., judged after 8 h
How it was run: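 MIC taken as lowest protein level with no bacterial growth, tracked by A600 every 30 min during 37 °C, 175 rpm culture. Two-fold protein series 50-12.5 μg/mL final, triplicate wells, against 5×10^5 CFU/mL of LB-washed mid-log cells.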

Aeromonas hydrophila = experiment: MIC against Gram-negative bacteria: Aeromonas hydrophila; settings: 5×10^5 CFU/mL; for MIC A. hydrophila: 10 h cultivation at 37° C., two-fold serial dilution; for MIC against A. hydrophila: Aeromonas hydrophila, 96-well plate, 37° C., 10 h
How it was run: as §1

E. coli BL21 = experiment: MIC against Gram-negative bacteria: E. coli BL21; settings: 5×10^5 CFU/mL; for MIC E. coli BL21: 10 h cultivation at 37° C., two-fold serial dilution; for MIC against E. coli BL21: 96-well plate, 37° C., 10 h
How it was run: as §1

Serratia marcescens = experiment: MIC against Gram-negative bacteria: Serratia marcescens; settings: 5×10^5 CFU/mL; for MIC S. marcescens: 10 h cultivation at 37° C., two-fold serial dilution; for MIC against S. marcescens: Serratia marcescens, 96-well plate, 37° C., 10 h
How it was run: as §1

Citrobacter diversus = experiment: MIC against Gram-negative bacteria: Citrobacter diversus; settings: 5×10^5 CFU/mL; for MIC C. diversus: 10 h cultivation at 37° C., two-fold serial dilution; for MIC against C. diversus: Citrobacter diversus, 96-well plate, 37° C., 10 h
How it was run: as §1

Klebsiella pneumonia = experiment: MIC against Gram-negative bacteria: Klebsiella pneumonia; settings: 5×10^5 CFU/mL; for MIC K. pneumonia: 10 h cultivation at 37° C., two-fold serial dilution; for MIC against K. pneumonia: Klebsiella pneumonia, 96-well plate, 37° C., 10 h
How it was run: as §1

Row | Substance | MIC P. aeruginosa (Pseudomonas aeruginosa) [mg/L] | MIC M. catarrhalis (Moraxella catarrhalis) [mg/L] | MIC P. mirabilis (Proteus mirabilis) [mg/L] | MIC E. cloacae (Enterobacter cloacae) [mg/L] | MIC P. vulgaris (Proteus vulgaris) [mg/L] | MIC (E. coli DH5α) [mg/L] | MIC A. hydrophila (Aeromonas hydrophila) [mg/L] | MIC E. coli BL21 (E. coli BL21) [mg/L] | MIC S. marcescens (Serratia marcescens) [mg/L] | MIC C. diversus (Citrobacter diversus) [mg/L] | MIC K. pneumonia (Klebsiella pneumonia) [mg/L] | MIC against P. aeruginosa (Pseudomonas aeruginosa) [mg/L] | MIC against M. catarrhalis (Moraxella catarrhalis) [mg/L] | MIC against P. mirabilis (Proteus mirabilis) [mg/L] | MIC against E. cloacae (Enterobacter cloacae) [mg/L] | MIC against P. vulgaris (Proteus vulgaris) [mg/L] | MIC against A. hydrophila (Aeromonas hydrophila) [mg/L] | MIC against E. coli BL21 (E. coli BL21) [mg/L] | MIC against S. marcescens (Serratia marcescens) [mg/L] | MIC against C. diversus (Citrobacter diversus) [mg/L] | other results
1 | PRT1185 (REFQCDAYTCSNGGTCYDSGDTFRCACPPGWKGSTCA; listed as Homo sapiens) | 25 | 50 | 12.5 | 12.5 | 50 | 50 | 50 | 12.5 | 12.5 | 12.5 | 50 | – | – | – | – | – | – | – | – | – | –
2 | PRT1186 (KNSSCLPNPCVNGGTCVGSGASFSCICRDGWEGRTCT; listed as Homo sapiens) | 12.5 | 50 | 12.5 | 50 | 50 | 50 | 12.5 | 25 | 12.5 | 25 | 25 | – | – | – | – | – | – | – | – | – | –
3 | PRT1187 (NTNDCNPLPCYNGGICVDGVNWFRCECAPGFAGPDCR; listed as Homo sapiens) | 12.5 | 12.5 | 25 | 25 | 12.5 | 50 | 12.5 | 25 | 12.5 | 12.5 | 25 | – | – | – | – | – | – | – | – | – | –
4 | PRT1189 (ECVPYPGCVHGSCVEPWQCNCETNWGGLLCD; listed as Homo sapiens) | 25 | 12.5 | 25 | 12.5 | 50 | 50 | 25 | 12.5 | 12.5 | 50 | 50 | – | – | – | – | – | – | – | – | – | –
5 | PRT1190 (DLNYCGSHHPCTNGGTCINAEPDQYRCTCPDGYSGRNCE; listed as Homo sapiens) | 25 | 50 | 25 | 50 | 12.5 | 50 | 12.5 | 12.5 | 50 | 25 | 12.5 | – | – | – | – | – | – | – | – | – | –
6 | PRT1191 (AEHACTSNPCANGGSCHEVPSGFECHCPSGWSGPTCA; listed as Homo sapiens) | 50 | 50 | 25 | 25 | 12.5 | 12.5 | 25 | 25 | 50 | 12.5 | 25 | – | – | – | – | – | – | – | – | – | –
7 | PRT1192 (DIDECASNPCAAGGTCVDQVDGFECICPEQWVGATCQ; listed as Homo sapiens) | 25 | 25 | 12.5 | 25 | 50 | 25 | 12.5 | 12.5 | 25 | 50 | 50 | – | – | – | – | – | – | – | – | – | –
8 | PRT1193 (DANECEGKPCLNAFSCKNLIGGYYCDCIPGWKGINCH; listed as Homo sapiens) | 12.5 | 12.5 | 50 | 12.5 | 25 | 12.5 | 12.5 | 12.5 | 12.5 | 25 | 25 | – | – | – | – | – | – | – | – | – | –
9 | PRT1196 (DVDLCEPSPCRNGARCYNLEGDYYCACPDDFGGKNCS; listed as Homo sapiens) | – | – | – | – | – | 12.5 | – | – | – | – | – | 12.5 | 25 | 12.5 | 25 | 25 | 25 | 50 | 50 | 50 | MIC against K. pneumonia (Klebsiella pneumonia): 25 mg/L
10 | PRT1197 (DIDECAAKMHYCHANTVCVNLPGLYRCDCVPGYIRVDDFSCT; listed as Homo sapiens) | – | – | – | – | – | 25 | – | – | – | – | – | 25 | 12.5 | 25 | 12.5 | 50 | 50 | 12.5 | 25 | 25 | MIC against K. pneumonia (Klebsiella pneumonia): 50 mg/L
11 | PRT1198 (EHDECGSGQHNCDENAICTNTVQGHSCTCKPGYVGNGTICR; listed as Homo sapiens) | – | – | – | – | – | 25 | – | – | – | – | – | 25 | 12.5 | 50 | 12.5 | 25 | 50 | 12.5 | 12.5 | 25 | MIC against K. pneumonia (Klebsiella pneumonia): 50 mg/L
12 | PRT1199 (AFCEEGCRYGGTCVAPNKCVCPSGFTGSHCE; listed as Homo sapiens) | – | – | – | – | – | 50 | – | – | – | – | – | 50 | 12.5 | 25 | 50 | 50 | 25 | 12.5 | 25 | 25 | MIC against K. pneumonia (Klebsiella pneumonia): 12.5 mg/L
13 | PRT1200 (DIDECSEGIIECHNHSRCVNLPGWYHCECRSGFHDDGTY; listed as Homo sapiens) | – | – | – | – | – | 12.5 | – | – | – | – | – | 12.5 | 50 | 25 | 25 | 12.5 | 25 | 12.5 | 50 | 12.5 | MIC against K. pneumonia (Klebsiella pneumonia): 12.5 mg/L
14 | PRT1201 (DIDECALRTHTCWNDSACINLAGGFDCLCPSGPSCS; listed as Homo sapiens) | – | – | – | – | – | 12.5 | – | – | – | – | – | 12.5 | 50 | 25 | 50 | 12.5 | 25 | 50 | 25 | 12.5 | MIC against K. pneumonia (Klebsiella pneumonia): 25 mg/L
